# Measurements from ChEMBL document CHEMBL5385847, “Design, synthesis and biological evaluation of a new class of 7H-pyrrolo[2,3-d]pyrimidine derivatives as Mps1 inhibitors for the treatment of breast cancer” (Eur J Med Chem, 2023).
# The source made the active and inactive calls. The calls are words filed in the database; no cut-off is given here.
# Legend:
# 4T1-Luc = test: Induction of DNA damage in mouse 4T1-Luc cells xenografted in BALB/C mouse assessed as increase in gamma-H2AX level at 30 to 60 mg/kg, po qd treated for 15 days by IHC analysis; format: functional, organism-based; conditions: dose 30-60 mg/kg, time 15.0 day
# [1] = Toxicity in BALB/C mouse xenografted with mouse 4T1-Luc cells assessed as histological change in liver at 30 to 60 mg/kg, po qd treated for 15 days by H and E staining based analysis; format: organism-based; conditions: in vivo, 360 h, dose 30-60 mg/kg, time 15 day
# [2] = Toxicity in BALB/C mouse xenografted with mouse 4T1-Luc cells assessed as histological change in heart at 30 to 60 mg/kg, po qd treated for 15 days by H and E staining based analysis; format: organism-based; conditions: in vivo, 360 h, dose 30-60 mg/kg, time 15 day
# [3] = Toxicity in BALB/C mouse xenografted with mouse 4T1-Luc cells assessed as change in blood biochemical parameters at 30 to 60 mg/kg, po qd treated for 15 days; format: organism-based; conditions: in vivo, 360 h, dose 30-60 mg/kg, time 15 day
# [4] = Toxicity in BALB/C mouse xenografted with mouse 4T1-Luc cells assessed as body weight change at 30 to 60 mg/kg, po qd treated for 15 days; format: organism-based; conditions: in vivo, 360 h, dose 30-60 mg/kg, time 15 day
# [5] = Antitumor activity against mouse 4T1-Luc cells xenografted in BALB/C mouse assessed as reduction in mean tumor weight at 60 mg/kg, po qd treated for 15 days (reference value: 3.56 g); format: functional; conditions: time 15 day
# 4T1 [6] = test: Induction of apoptosis in 4T1 cells assessed as increase in cleaved PARP level upto 3 uM incubated for 48 hrs by Western blot analysis; format: functional, cell-based; conditions: Mus musculus
# 4T1 [7] = test: Induction of apoptosis in 4T1 cells assessed as late apoptotic cells at 1 uM incubated for 48 hrs by Annexin V-FITC/PI staining based flow cytometry (reference value: 1.73 %); format: functional, Mus musculus
# 4T1 [8] = test: Induction of apoptosis in 4T1 cells assessed as necrotic cells at 0.5 uM incubated for 48 hrs by Annexin V-FITC/PI staining based flow cytometry (reference value: 0.20 %); format: functional, Mus musculus
# 4T1 [9] = test: Induction of apoptosis in 4T1 cells assessed as early apoptotic cells at 0.5 uM incubated for 48 hrs by Annexin V-FITC/PI staining based flow cytometry (reference value: 0.32 %); format: functional, Mus musculus
# 4T1 [10] = test: Induction of cell cycle arrest in 4T1 cells at G2/M phase assessed as decrease in cyclin B1 level incubated for 24 hrs by Western blot analysis; format: functional, cell-based; conditions: Mus musculus, dose <= 3.0 µM
# MCF7 [11] = test: Induction of cell cycle arrest in human MCF7 cells at G2/M phase assessed as decrease in cyclin B1 level incubated for 24 hrs by Western blot analysis; format: functional, cell-based; conditions: dose <= 3.0 µM
# 4T1 [12] = test: Induction of cell cycle arrest in 4T1 cells at G2/M phase incubated for 24 hrs by Annexin V/PI staining based flow cytometry; format: functional; conditions: Mus musculus, dose <= 5.0 µM
# MCF7 [13] = test: Induction of cell cycle arrest in human MCF7 cells at G2/M phase incubated for 24 hrs by Annexin V/PI staining based flow cytometry; format: functional; conditions: dose <= 5.0 µM
# MCF7 [14] = test: Antiproliferative activity against human MCF7 cells upto 5 uM measured after 14 days by colony formation assay; format: functional, cell-based; conditions: time 14.0 day
# AGS = test: Antiproliferative activity against human AGS cells assessed as inhibition of cell viability upto 10 uM incubated for 72 hrs by MTT assay; format: functional, cell-based
# A549 = test: Antiproliferative activity against human A549 cells assessed as inhibition of cell viability upto 10 uM incubated for 72 hrs by MTT assay; format: functional, cell-based
# ES-2 [15] = test: Antiproliferative activity against human ES2 cells assessed as inhibition of cell viability upto 10 uM incubated for 72 hrs by MTT assay; format: functional, cell-based
# OVCAR-3 [16] = test: Antiproliferative activity against human OVCAR-3 cells assessed as inhibition of cell viability upto 10 uM incubated for 72 hrs by MTT assay; format: functional, cell-based
# 4T1 [17] = test: Antiproliferative activity against 4T1 cells assessed as inhibition of cell viability upto 10 uM by MTT assay; format: functional, cell-based; conditions: Mus musculus, time 24-72 hrs, TDE = time-dependent effect
# MCF7 [18] = test: Antiproliferative activity against human MCF7 cells assessed as inhibition of cell viability upto 10 uM by MTT assay; format: functional, cell-based; conditions: time 24-72 hrs, TDE = time-dependent effect
# MDA-MB-231 [19] = test: Antiproliferative activity against human MDA-MB-231 cells assessed as inhibition of cell viability upto 10 uM incubated for 72 hrs by MTT assay; format: functional, cell-based
# HCT-116 = test: Antiproliferative activity against human HCT-116 cells assessed as inhibition of cell viability by MTT assay; format: functional, cell-based
# ES-2 [20] = test: Antiproliferative activity against human ES2 cells assessed as inhibition of cell viability by MTT assay; format: functional, cell-based
# OVCAR-3 [21] = test: Antiproliferative activity against human OVCAR-3 cells assessed as inhibition of cell viability by MTT assay; format: functional, cell-based
# MCF7 [22] = test: Antiproliferative activity against human MCF7 cells assessed as inhibition of cell viability by MTT assay; format: functional, cell-based
# MDA-MB-231 [23] = test: Antiproliferative activity against human MDA-MB-231 cells assessed as inhibition of cell viability by MTT assay; format: functional, cell-based
# [24] = system: Tyrosine-protein kinase ABL1 (Homo sapiens), P00519 [T315I]; test: Inhibition of human Abl T315I mutant at 0.1 uM by KINOMEscan assay relative to control
# [25] = biological target: ALK tyrosine kinase receptor (Homo sapiens) (UniProt Q9UM73); test: Inhibition of human ALK at 0.1 uM by KINOMEscan assay relative to control
# ALK tyrosine kinase receptor (Homo sapiens), sequence (Q9UM73 19-1620 limits assumed): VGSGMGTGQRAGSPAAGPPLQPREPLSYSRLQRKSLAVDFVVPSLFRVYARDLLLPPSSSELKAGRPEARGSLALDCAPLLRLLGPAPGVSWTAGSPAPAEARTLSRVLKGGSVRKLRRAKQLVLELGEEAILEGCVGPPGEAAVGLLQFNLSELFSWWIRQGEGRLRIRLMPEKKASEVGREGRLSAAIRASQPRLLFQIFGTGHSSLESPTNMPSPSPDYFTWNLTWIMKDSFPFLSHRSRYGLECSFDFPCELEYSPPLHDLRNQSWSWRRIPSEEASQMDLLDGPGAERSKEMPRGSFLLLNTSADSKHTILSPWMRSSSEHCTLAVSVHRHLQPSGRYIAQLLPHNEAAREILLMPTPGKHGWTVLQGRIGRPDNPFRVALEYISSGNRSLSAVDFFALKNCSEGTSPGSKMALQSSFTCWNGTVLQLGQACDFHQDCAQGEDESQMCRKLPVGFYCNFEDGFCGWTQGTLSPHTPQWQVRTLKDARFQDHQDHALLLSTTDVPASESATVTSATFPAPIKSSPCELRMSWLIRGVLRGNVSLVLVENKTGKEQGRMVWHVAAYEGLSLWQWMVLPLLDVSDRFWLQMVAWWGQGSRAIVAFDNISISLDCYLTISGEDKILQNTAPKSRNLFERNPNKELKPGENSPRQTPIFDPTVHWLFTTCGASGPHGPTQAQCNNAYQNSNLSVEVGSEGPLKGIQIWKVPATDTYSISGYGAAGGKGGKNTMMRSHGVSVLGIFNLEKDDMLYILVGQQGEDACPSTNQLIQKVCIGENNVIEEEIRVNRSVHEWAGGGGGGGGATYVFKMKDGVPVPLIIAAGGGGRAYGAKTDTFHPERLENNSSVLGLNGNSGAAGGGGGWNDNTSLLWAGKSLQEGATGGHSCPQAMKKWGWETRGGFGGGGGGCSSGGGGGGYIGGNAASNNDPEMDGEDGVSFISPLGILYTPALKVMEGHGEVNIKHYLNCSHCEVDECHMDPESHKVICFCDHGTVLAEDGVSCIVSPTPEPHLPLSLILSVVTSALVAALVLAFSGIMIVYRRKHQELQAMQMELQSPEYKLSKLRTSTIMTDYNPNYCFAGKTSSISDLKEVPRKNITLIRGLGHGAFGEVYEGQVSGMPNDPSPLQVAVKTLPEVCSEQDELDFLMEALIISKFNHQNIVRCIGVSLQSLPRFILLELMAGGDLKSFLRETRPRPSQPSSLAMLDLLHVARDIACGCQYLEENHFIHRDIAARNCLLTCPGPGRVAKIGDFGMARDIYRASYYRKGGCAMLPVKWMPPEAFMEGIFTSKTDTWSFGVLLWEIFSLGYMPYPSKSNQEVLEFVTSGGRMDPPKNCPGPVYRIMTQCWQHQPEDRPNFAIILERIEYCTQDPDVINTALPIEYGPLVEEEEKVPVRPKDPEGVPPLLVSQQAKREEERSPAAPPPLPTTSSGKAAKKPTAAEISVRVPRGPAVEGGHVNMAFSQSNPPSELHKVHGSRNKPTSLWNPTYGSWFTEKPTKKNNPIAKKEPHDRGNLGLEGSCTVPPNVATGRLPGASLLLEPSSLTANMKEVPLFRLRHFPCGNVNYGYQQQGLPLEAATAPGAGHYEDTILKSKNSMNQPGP
# [26] = biological target: Tyrosine-protein kinase JAK2 (Homo sapiens) (UniProt O60674); test: Inhibition of human JAK2 at 0.1 uM by KINOMEscan assay relative to control
# Tyrosine-protein kinase JAK2 (Homo sapiens), sequence (O60674 whole entry): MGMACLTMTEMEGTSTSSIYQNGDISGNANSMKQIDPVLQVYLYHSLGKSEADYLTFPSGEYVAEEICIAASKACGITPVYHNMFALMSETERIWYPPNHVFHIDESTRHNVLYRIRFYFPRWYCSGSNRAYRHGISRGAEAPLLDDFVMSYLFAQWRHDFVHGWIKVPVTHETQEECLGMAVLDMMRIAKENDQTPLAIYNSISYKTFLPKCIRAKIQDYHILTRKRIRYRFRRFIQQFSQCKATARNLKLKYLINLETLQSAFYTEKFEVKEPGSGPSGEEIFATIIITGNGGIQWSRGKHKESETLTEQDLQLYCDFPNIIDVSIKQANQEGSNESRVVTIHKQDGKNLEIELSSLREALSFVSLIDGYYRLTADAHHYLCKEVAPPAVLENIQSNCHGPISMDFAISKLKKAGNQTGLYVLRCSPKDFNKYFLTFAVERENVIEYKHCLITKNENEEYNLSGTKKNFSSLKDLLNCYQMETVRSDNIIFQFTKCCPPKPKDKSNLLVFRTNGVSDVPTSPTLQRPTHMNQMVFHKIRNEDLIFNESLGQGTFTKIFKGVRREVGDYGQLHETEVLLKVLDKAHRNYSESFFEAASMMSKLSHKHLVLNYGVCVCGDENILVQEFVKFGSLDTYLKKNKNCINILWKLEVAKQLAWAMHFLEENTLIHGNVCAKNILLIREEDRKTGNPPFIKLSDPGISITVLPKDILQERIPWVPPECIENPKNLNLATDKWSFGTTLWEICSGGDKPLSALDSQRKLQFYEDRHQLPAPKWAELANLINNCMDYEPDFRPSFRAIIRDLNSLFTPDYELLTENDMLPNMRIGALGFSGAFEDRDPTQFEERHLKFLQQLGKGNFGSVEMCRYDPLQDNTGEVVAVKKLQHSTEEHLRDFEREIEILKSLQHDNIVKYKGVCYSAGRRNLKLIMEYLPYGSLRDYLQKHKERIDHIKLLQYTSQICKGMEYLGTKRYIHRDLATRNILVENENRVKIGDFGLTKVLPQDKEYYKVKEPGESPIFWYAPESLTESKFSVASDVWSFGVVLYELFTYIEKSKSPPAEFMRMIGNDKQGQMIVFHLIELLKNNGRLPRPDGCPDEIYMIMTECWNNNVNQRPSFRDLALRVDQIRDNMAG
# [27] = biological target: Hepatocyte growth factor receptor (Homo sapiens) (UniProt P08581); test: Inhibition of human Met at 0.1 uM by KINOMEscan assay relative to control
# [28] = biological target: Insulin-like growth factor 1 receptor (Homo sapiens) (UniProt P08069); test: Inhibition of human IGF-1R at 0.1 uM by KINOMEscan assay relative to control
# Insulin-like growth factor 1 receptor (Homo sapiens), sequence (P08069 31-736 limits assumed): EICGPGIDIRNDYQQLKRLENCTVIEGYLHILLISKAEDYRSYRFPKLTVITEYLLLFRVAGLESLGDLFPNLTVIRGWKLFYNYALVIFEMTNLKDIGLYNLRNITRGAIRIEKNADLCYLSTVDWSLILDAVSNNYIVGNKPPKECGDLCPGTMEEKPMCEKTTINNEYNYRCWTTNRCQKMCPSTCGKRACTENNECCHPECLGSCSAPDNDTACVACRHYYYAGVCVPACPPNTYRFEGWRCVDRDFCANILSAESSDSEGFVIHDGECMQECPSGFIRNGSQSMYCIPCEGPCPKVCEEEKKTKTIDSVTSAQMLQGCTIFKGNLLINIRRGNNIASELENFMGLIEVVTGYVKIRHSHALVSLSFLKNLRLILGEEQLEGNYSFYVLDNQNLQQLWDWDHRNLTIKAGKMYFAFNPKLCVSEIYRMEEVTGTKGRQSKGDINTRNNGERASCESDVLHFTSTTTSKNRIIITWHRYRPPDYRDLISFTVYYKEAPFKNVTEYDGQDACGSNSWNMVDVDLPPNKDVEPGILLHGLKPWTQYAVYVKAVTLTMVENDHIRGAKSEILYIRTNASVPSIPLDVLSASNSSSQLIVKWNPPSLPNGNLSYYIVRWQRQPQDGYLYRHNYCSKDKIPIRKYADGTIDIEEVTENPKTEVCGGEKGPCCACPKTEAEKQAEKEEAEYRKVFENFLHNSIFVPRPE
# Insulin-like growth factor 1 receptor (Homo sapiens), sequence (P08069 741-1367 limits assumed): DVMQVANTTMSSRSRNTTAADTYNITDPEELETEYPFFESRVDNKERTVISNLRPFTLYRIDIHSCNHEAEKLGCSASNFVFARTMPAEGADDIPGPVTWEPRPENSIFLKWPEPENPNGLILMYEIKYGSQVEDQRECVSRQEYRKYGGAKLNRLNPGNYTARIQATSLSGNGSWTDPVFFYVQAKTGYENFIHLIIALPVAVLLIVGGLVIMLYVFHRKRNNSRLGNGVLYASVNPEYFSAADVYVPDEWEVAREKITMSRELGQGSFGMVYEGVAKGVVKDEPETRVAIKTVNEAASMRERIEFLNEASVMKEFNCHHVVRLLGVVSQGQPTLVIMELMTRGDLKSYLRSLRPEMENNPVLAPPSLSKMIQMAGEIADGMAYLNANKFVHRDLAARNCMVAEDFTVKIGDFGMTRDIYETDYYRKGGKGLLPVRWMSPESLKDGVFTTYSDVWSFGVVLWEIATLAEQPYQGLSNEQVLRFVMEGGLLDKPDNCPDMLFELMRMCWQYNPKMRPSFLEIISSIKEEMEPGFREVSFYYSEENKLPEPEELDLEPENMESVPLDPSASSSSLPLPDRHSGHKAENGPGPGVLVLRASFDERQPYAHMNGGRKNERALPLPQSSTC
# [29] = biological target: Angiopoietin-1 receptor (Homo sapiens) (UniProt Q02763); test: Inhibition of human Tie2 at 1 uM by KINOMEscan assay relative to control
# [30] = biological target: Tyrosine-protein kinase JAK2 (Homo sapiens) (UniProt O60674); test: Inhibition of human JAK2 at 1 uM by KINOMEscan assay relative to control
# [31] = biological target: Insulin-like growth factor 1 receptor (Homo sapiens) (UniProt P08069); test: Inhibition of human IGF-1R at 1 uM by KINOMEscan assay relative to control
# [32] = biological target: ALK tyrosine kinase receptor (Homo sapiens) (UniProt Q9UM73); test: Inhibition of human ALK at 1 uM by KINOMEscan assay relative to control
# [33] = system: Tyrosine-protein kinase ABL1 (Homo sapiens), P00519 [T315I]; test: Inhibition of human Abl T315I mutant at 1 uM by KINOMEscan assay relative to control
# [34] = biological target: Tyrosine-protein kinase Yes (Homo sapiens) (UniProt P07947); test: Inhibition of human Yes at 0.1 uM by KINOMEscan assay relative to control
# Tyrosine-protein kinase Yes (Homo sapiens), sequence (P07947 2-543 limits assumed): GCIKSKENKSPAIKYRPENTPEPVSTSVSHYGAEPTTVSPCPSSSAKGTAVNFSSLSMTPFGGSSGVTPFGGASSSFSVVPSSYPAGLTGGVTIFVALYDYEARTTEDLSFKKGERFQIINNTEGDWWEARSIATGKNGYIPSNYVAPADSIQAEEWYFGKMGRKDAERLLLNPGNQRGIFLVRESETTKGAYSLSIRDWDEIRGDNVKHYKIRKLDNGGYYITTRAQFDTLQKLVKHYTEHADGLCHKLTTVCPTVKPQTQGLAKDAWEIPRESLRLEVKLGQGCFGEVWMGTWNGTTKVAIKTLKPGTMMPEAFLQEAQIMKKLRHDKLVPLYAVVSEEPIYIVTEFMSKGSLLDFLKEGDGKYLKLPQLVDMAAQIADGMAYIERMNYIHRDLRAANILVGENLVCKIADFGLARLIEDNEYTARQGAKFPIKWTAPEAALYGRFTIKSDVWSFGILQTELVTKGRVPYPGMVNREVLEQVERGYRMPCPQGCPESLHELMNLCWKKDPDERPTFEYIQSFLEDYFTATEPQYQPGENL
compound,measurement,setting,value
CN1CCN(c2ccc(Nc3nc(-n4nc(N)c5ccccc54)c4cc[nH]c4n3)cc2)CC1,Activity,4T1-Luc,Active
same,Activity,[1],Non-Toxic
same,Activity,[2],Non-Toxic
same,Activity,[3],Non-Toxic
same,Activity,[4],Non-Toxic
same,Activity,[5],0.97 g
same,Activity,4T1 [6],Active
same,Activity,4T1 [7],5.58%
same,Activity,4T1 [8],0.7%
same,Activity,4T1 [9],1.17%
same,Activity,4T1 [10],Dose-Dependent Effect
same,Activity,MCF7 [11],Dose-Dependent Effect
same,Activity,4T1 [12],Dose-Dependent Effect
same,Activity,MCF7 [13],Dose-Dependent Effect
same,Activity,MCF7 [14],Active
same,inhibition,AGS,Active
same,inhibition,A549,Active
same,inhibition,ES-2 [15],Active
same,inhibition,OVCAR-3 [16],Active
same,inhibition,4T1 [17],Tde
same,inhibition,MCF7 [18],Tde
same,inhibition,MDA-MB-231 [19],Active
same,IC50,HCT-116,1060 nM
same,IC50,ES-2 [20],> 3000 nM
same,IC50,OVCAR-3 [21],> 3000 nM
same,IC50,MCF7 [22],370 nM
same,IC50,MDA-MB-231 [23],2680 nM
same,inhibition,[24],40%
same,inhibition,[25],86%
same,inhibition,[26],65%
same,inhibition,[27],53%
same,inhibition,[28],43%
same,inhibition,[29],92%
same,inhibition,[30],95%
same,inhibition,[31],98%
same,inhibition,[32],91%
same,inhibition,[33],100%
same,inhibition,[34],80%
